Experimental data as given in PubChem BioAssay (NCI).
“And” between values parts separate entries of the source, which are not always exact repeats. Equal entries are not always repeated.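 Briefly, cells in 96-well plates were exposed to five compound concentrations for 48 h, and endpoints were estimated by linear interpolation. GI50: concentration for 50% inhibition of growth. TGI: concentration producing complete growth inhibition.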

Experiments:
Assay in all cases: NCI anticancer screen, dose series, 48 h
[1] = system: MCF7 breast
[2] = system: NCI-H226 lung
[3] = system: PC-3 prostate
[4] = system: MDA-MB-435
[5] = system: HOP-92 NSCLC
[6] = system: MDA-N
[7] = system: HCT-15 colon
[8] = system: UACC-62 melanoma
[9] = system: OVCAR-4 ovarian
[10] = system: SF-295 CNS
[11] = system: K-562 leukemia
[12] = system: HCC-2998 colon
[13] = system: SK-MEL-2 melanoma
[14] = system: SN12C renal
[15] = system: IGROV1 ovarian
[16] = system: HT29 colon
[17] = system: MDA-MB-231 breast
[18] = system: NCI-H23 lung
[19] = system: TK-10 renal
[20] = system: COLO 205 colon
[21] = system: SW-620 colon
[22] = system: UACC-257 melanoma
[23] = system: DU-145 prostate
[24] = system: CCRF-CEM leukemia
[25] = system: A498 renal
[26] = system: RPMI-8226 leukemia
[27] = system: SNB-19 CNS
[28] = system: NCI-H460 lung
[29] = system: HOP-62 NSCLC
[30] = system: A549 NSCLC
[31] = system: KM12 colon
[32] = system: SR leukemia
[33] = system: MALME-3M melanoma
[34] = system: RXF 393 renal
[35] = system: U251 CNS
[36] = system: 786-0 renal
[37] = system: SK-MEL-28 melanoma
[38] = system: OVCAR-5 ovarian
[39] = system: SK-OV-3 ovarian
[40] = system: CAKI-1 renal
[41] = system: M14 melanoma
[42] = system: NCI/ADR-RES ovarian
[43] = system: LOX IMVI melanoma
[44] = system: SNB-75 CNS
[45] = system: HCT-116 colon
[46] = system: SF-268 CNS
[47] = system: T-47D breast
[48] = system: BT-549 breast
[49] = system: OVCAR-3 ovarian
[50] = system: MOLT-4 leukemia
[51] = system: NCI-H522 lung
[52] = system: HS 578T breast
[53] = system: SF-539 CNS
[54] = system: OVCAR-8 ovarian
[55] = system: ACHN renal
[56] = system: EKVX NSCLC
[57] = system: UO-31 renal
[58] = system: SK-MEL-5 melanoma

Structure (SMILES): O=c1cc(/C=C/c2ccc(O)c(O)c2)cc(/C=C/c2ccc(O)c(O)c2)o1
- TGI [1]: 18.8 µM
- GI50 [2]: 11 µM
- TGI [2]: 35 µM and 33.4 µM
- GI50 [3]: 11 µM
- TGI [3]: 19.9 µM and 27.7 µM
- GI50 [4]: 3.15 µM
- TGI [4]: 50 µM and 11.6 µM
- GI50 [5]: 5.16 µM
- TGI [5]: 47.6 µM and 17.3 µM
- GI50 [6]: 4.72 µM
- TGI [6]: 50 µM and 17.1 µM
- GI50 [7]: 4.47 µM
- TGI [7]: 24.1 µM and 18.1 µM
- GI50 [8]: 2.5 µM
- TGI [8]: 16.6 µM and 6.05 µM
- GI50 [9]: 3.17 µM
- TGI [9]: 43.5 µM and 13.8 µM
- GI50 [10]: 10.5 µM
- TGI [10]: 19.8 µM and 22.2 µM
- TGI [11]: 8.35 µM
- TGI [12]: 19.3 µM
- TGI [13]: 22.7 µM and 34.5 µM
- GI50 [14]: 6.06 µM
- TGI [14]: 25.2 µM and 23.7 µM
- GI50 [15]: 5.24 µM
- TGI [15]: 37.5 µM and 18.1 µM
- GI50 [16]: 21.5 µM
- TGI [16]: 23.7 µM and 56.8 µM
- GI50 [17]: 13.3 µM
- TGI [17]: 28.3 µM and 39.8 µM
- GI50 [18]: 3.49 µM
- TGI [18]: 41.9 µM and 20.8 µM
- GI50 [19]: 9.1 µM
- TGI [19]: 50 µM and 20.9 µM
- GI50 [20]: 19.1 µM
- TGI [20]: 24.6 µM and 34.4 µM
- GI50 [21]: 3.05 µM
- TGI [21]: 50 µM and 12.3 µM
- GI50 [22]: 9.98 µM
- TGI [22]: 29.4 µM and 27.5 µM
- GI50 [23]: 5.29 µM
- TGI [23]: 20.2 µM and 22.1 µM
- GI50 [24]: 2.53 µM
- TGI [24]: 27.1 µM and 4.86 µM
- TGI [25]: 23.4 µM
- GI50 [26]: 2.25 µM
- TGI [26]: 14.9 µM and 6.7 µM
- GI50 [27]: 5.8 µM
- TGI [27]: 15.7 µM and 18 µM
- GI50 [28]: 7.14 µM
- TGI [28]: 50 µM and 21.6 µM
- TGI [29]: 24.8 µM and 22.7 µM
- GI50 [30]: 5.48 µM
- TGI [30]: 50 µM and 18.9 µM
- GI50 [31]: 5 µM
- TGI [31]: 16 µM and 22.7 µM
- GI50 [32]: 1.99 µM
- TGI [32]: 14.2 µM and 6.05 µM
- GI50 [33]: 2.67 µM
- TGI [33]: 22.2 µM and 19.1 µM
- GI50 [34]: 3.42 µM
- TGI [34]: 18.9 µM and 9.11 µM
- GI50 [35]: 3.61 µM
- TGI [35]: 14.1 µM and 12.8 µM
- GI50 [36]: 5.85 µM
- TGI [36]: 50 µM and 23.2 µM
- TGI [37]: 50 µM
- GI50 [38]: 18.3 µM
- TGI [38]: 24.2 µM and 42.2 µM
- GI50 [39]: 13.1 µM
- TGI [39]: 24.1 µM and 25.8 µM
- GI50 [40]: 4.92 µM
- TGI [40]: 31.9 µM and 14.6 µM
- GI50 [41]: 8.94 µM
- TGI [41]: 21.6 µM and 20.8 µM
- GI50 [42]: 12 µM
- TGI [42]: 50 µM and 52.3 µM
- GI50 [43]: 5.19 µM
- TGI [43]: 50 µM and 19.4 µM
- GI50 [44]: 4.3 µM
- TGI [44]: 18.5 µM and 15.5 µM
- GI50 [45]: 4.17 µM
- TGI [45]: 15.6 µM and 15.3 µM
- GI50 [46]: 4.17 µM
- TGI [46]: 16.2 µM and 16.5 µM
- GI50 [47]: 1.95 µM
- TGI [47]: 27.3 µM and 4.92 µM
- GI50 [48]: 4.59 µM
- TGI [48]: 38.1 µM and 16.8 µM
- GI50 [49]: 4.92 µM
- TGI [49]: 15.2 µM and 22 µM
- TGI [50]: 6.48 µM
- GI50 [51]: 1.45 µM
- GI50 [52]: 3.96 µM
- TGI [52]: 50 µM and 34 µM
- GI50 [53]: 3 µM
- TGI [53]: 17.9 µM and 10.7 µM
- GI50 [54]: 5.5 µM
- TGI [54]: 50 µM and 32 µM
- GI50 [55]: 4.01 µM
- TGI [55]: 18.8 µM and 14.5 µM
- TGI [56]: 15 µM and 21.9 µM
- TGI [57]: 14.6 µM
- GI50 [58]: 4.75 µM
- TGI [58]: 18.1 µM and 19 µM
